#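 Tested at 5 concentrations; 48 h exposure; 96-well plates; endpoints linearly interpolated, else capped at highest concentration. GI50 marks 50% less growth. TGI: concentration producing complete growth inhibition.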
# Assays:
# Assay in all cases: NCI-60 cell line screen, 48 h
# DU-145 prostate = test system: DU-145 prostate
# OVCAR-4 ovarian = test system: OVCAR-4 ovarian
# T-47D breast = test system: T-47D breast
# SK-MEL-28 melanoma = test system: SK-MEL-28 melanoma
# NCI-H522 lung = test system: NCI-H522 lung
# CAKI-1 renal = test system: CAKI-1 renal
# SK-OV-3 ovarian = test system: SK-OV-3 ovarian
# IGROV1 ovarian = test system: IGROV1 ovarian
# HOP-62 NSCLC = test system: HOP-62 NSCLC
# CCRF-CEM leukemia = test system: CCRF-CEM leukemia
# 786-0 renal = test system: 786-0 renal
# OVCAR-8 ovarian = test system: OVCAR-8 ovarian
# M14 melanoma = test system: M14 melanoma
# SF-539 CNS = test system: SF-539 CNS
# K-562 leukemia = test system: K-562 leukemia
# A549 NSCLC = test system: A549 NSCLC
# MALME-3M melanoma = test system: MALME-3M melanoma
# OVCAR-5 ovarian = test system: OVCAR-5 ovarian
# HCT-15 colon = test system: HCT-15 colon
# PC-3 prostate = test system: PC-3 prostate
# NCI-H460 lung = test system: NCI-H460 lung
# SF-268 CNS = test system: SF-268 CNS
# SR leukemia = test system: SR leukemia
# SK-MEL-2 melanoma = test system: SK-MEL-2 melanoma
# SW-620 colon = test system: SW-620 colon
# KM12 colon = test system: KM12 colon
# NCI-H226 lung = test system: NCI-H226 lung
# MCF7 breast = test system: MCF7 breast
# OVCAR-3 ovarian = test system: OVCAR-3 ovarian
# MOLT-4 leukemia = test system: MOLT-4 leukemia
# RXF 393 renal = test system: RXF 393 renal
# MDA-MB-231 breast = test system: MDA-MB-231 breast
# MDA-MB-435 = test system: MDA-MB-435
# COLO 205 colon = test system: COLO 205 colon
# HCT-116 colon = test system: HCT-116 colon
# HOP-92 NSCLC = test system: HOP-92 NSCLC
# HS 578T breast = test system: HS 578T breast
# U251 CNS = test system: U251 CNS
# EKVX NSCLC = test system: EKVX NSCLC
# A498 renal = test system: A498 renal
# SF-295 CNS = test system: SF-295 CNS
# HT29 colon = test system: HT29 colon
# BT-549 breast = test system: BT-549 breast
# ACHN renal = test system: ACHN renal
# HCC-2998 colon = test system: HCC-2998 colon
# TK-10 renal = test system: TK-10 renal
# NCI/ADR-RES ovarian = test system: NCI/ADR-RES ovarian
# UACC-62 melanoma = test system: UACC-62 melanoma
# UACC-257 melanoma = test system: UACC-257 melanoma
# SNB-75 CNS = test system: SNB-75 CNS
# LOX IMVI melanoma = test system: LOX IMVI melanoma
# SN12C renal = test system: SN12C renal
# SK-MEL-5 melanoma = test system: SK-MEL-5 melanoma
# SNB-19 CNS = test system: SNB-19 CNS
# RPMI-8226 leukemia = test system: RPMI-8226 leukemia
# NCI-H23 lung = test system: NCI-H23 lung
# UO-31 renal = test system: UO-31 renal
smiles,measurement,setting,value
O=[N+]([O-])C(=C/C1CCCCC1)/C(=C\C1CCCCC1)[N+](=O)[O-],TGI,DU-145 prostate,26.7 µM
same,TGI,OVCAR-4 ovarian,40.1 µM
same,TGI,T-47D breast,38 µM
same,TGI,SK-MEL-28 melanoma,24.7 µM
same,TGI,NCI-H522 lung,4.3 µM
same,TGI,CAKI-1 renal,11.1 µM
same,TGI,SK-OV-3 ovarian,42.7 µM
same,TGI,IGROV1 ovarian,20.6 µM
same,TGI,HOP-62 NSCLC,19.1 µM
same,TGI,CCRF-CEM leukemia,17.7 µM
same,TGI,786-0 renal,4.11 µM
same,TGI,OVCAR-8 ovarian,> 27.3 µM
same,TGI,M14 melanoma,22.3 µM
same,TGI,SF-539 CNS,9.4 µM
same,TGI,K-562 leukemia,> 82 µM
same,TGI,A549 NSCLC,49 µM
same,TGI,MALME-3M melanoma,6.69 µM
same,TGI,OVCAR-5 ovarian,38.8 µM
same,TGI,HCT-15 colon,3.76 µM
same,TGI,PC-3 prostate,34.4 µM
same,TGI,NCI-H460 lung,12.5 µM
same,TGI,SF-268 CNS,14.7 µM
same,TGI,SR leukemia,6.89 µM
same,TGI,SK-MEL-2 melanoma,37.8 µM
same,TGI,SW-620 colon,17.4 µM
same,TGI,KM12 colon,29.8 µM
same,TGI,NCI-H226 lung,17.9 µM
same,TGI,MCF7 breast,26.4 µM
same,TGI,OVCAR-3 ovarian,31.6 µM
same,TGI,MOLT-4 leukemia,> 26.1 µM
same,TGI,RXF 393 renal,3.93 µM
same,TGI,MDA-MB-231 breast,8.98 µM
same,TGI,MDA-MB-435,20.4 µM
same,TGI,COLO 205 colon,9.29 µM
same,TGI,HCT-116 colon,17.7 µM
same,TGI,HOP-92 NSCLC,20.2 µM
same,TGI,HS 578T breast,18.4 µM
same,TGI,U251 CNS,14.7 µM
same,TGI,EKVX NSCLC,24.9 µM
same,TGI,A498 renal,30 µM
same,TGI,SF-295 CNS,32.8 µM
same,TGI,HT29 colon,28.8 µM
same,TGI,BT-549 breast,12.5 µM
same,TGI,ACHN renal,10.7 µM
same,TGI,HCC-2998 colon,36.4 µM
same,TGI,TK-10 renal,16.8 µM
same,TGI,NCI/ADR-RES ovarian,7.29 µM
same,TGI,UACC-62 melanoma,17.6 µM
same,TGI,UACC-257 melanoma,23.5 µM
same,TGI,SNB-75 CNS,31.3 µM
same,TGI,LOX IMVI melanoma,4.94 µM
same,TGI,SN12C renal,11.5 µM
same,TGI,SK-MEL-5 melanoma,23.1 µM
same,TGI,SNB-19 CNS,35.7 µM
same,TGI,RPMI-8226 leukemia,5.4 µM
same,TGI,NCI-H23 lung,10.1 µM
same,TGI,UO-31 renal,22.4 µM
O=C(CNC(=O)c1cccc2ccccc12)Nc1ccccc1Oc1ccccc1,GI50,DU-145 prostate,0.325 µM
same,TGI,DU-145 prostate,> 10 µM
same,GI50,OVCAR-4 ovarian,4.54 µM
same,TGI,OVCAR-4 ovarian,> 10 µM
same,GI50,T-47D breast,0.542 µM
same,TGI,T-47D breast,> 10 µM
same,GI50,SK-MEL-28 melanoma,0.813 µM
same,TGI,SK-MEL-28 melanoma,> 10 µM
same,GI50,NCI-H522 lung,0.151 µM
same,TGI,NCI-H522 lung,0.612 µM
same,GI50,CAKI-1 renal,0.353 µM
same,TGI,CAKI-1 renal,> 10 µM
same,GI50,SK-OV-3 ovarian,0.398 µM
same,TGI,SK-OV-3 ovarian,4.34 µM
same,GI50,IGROV1 ovarian,0.91 µM
same,TGI,IGROV1 ovarian,> 10 µM
same,GI50,HOP-62 NSCLC,0.354 µM
same,TGI,HOP-62 NSCLC,> 10 µM
same,GI50,CCRF-CEM leukemia,0.345 µM
same,TGI,CCRF-CEM leukemia,> 10 µM
same,GI50,786-0 renal,0.449 µM
same,TGI,786-0 renal,> 10 µM
same,GI50,OVCAR-8 ovarian,0.315 µM
same,TGI,OVCAR-8 ovarian,> 10 µM
same,GI50,M14 melanoma,0.278 µM
same,TGI,M14 melanoma,> 10 µM
same,GI50,SF-539 CNS,0.237 µM
same,TGI,SF-539 CNS,0.695 µM
same,GI50,K-562 leukemia,0.0704 µM
same,TGI,K-562 leukemia,> 10 µM
same,GI50,A549 NSCLC,0.459 µM
same,TGI,A549 NSCLC,> 10 µM
same,TGI,MALME-3M melanoma,> 10 µM
same,GI50,OVCAR-5 ovarian,0.521 µM
same,TGI,OVCAR-5 ovarian,> 10 µM
same,GI50,HCT-15 colon,0.245 µM
same,TGI,HCT-15 colon,> 10 µM
same,GI50,PC-3 prostate,0.304 µM
same,TGI,PC-3 prostate,> 10 µM
same,GI50,NCI-H460 lung,0.333 µM
same,TGI,NCI-H460 lung,> 10 µM
same,GI50,SF-268 CNS,0.435 µM
same,TGI,SF-268 CNS,> 10 µM
same,GI50,SR leukemia,0.0825 µM
same,TGI,SR leukemia,> 10 µM
same,GI50,SK-MEL-2 melanoma,0.272 µM
same,TGI,SK-MEL-2 melanoma,> 10 µM
same,GI50,SW-620 colon,0.283 µM
same,TGI,SW-620 colon,> 10 µM
same,GI50,KM12 colon,0.289 µM
same,TGI,KM12 colon,> 10 µM
same,GI50,NCI-H226 lung,2.19 µM
same,TGI,NCI-H226 lung,> 10 µM
same,GI50,MCF7 breast,0.306 µM
same,TGI,MCF7 breast,> 10 µM
same,GI50,OVCAR-3 ovarian,0.19 µM
same,TGI,OVCAR-3 ovarian,0.638 µM
same,GI50,MOLT-4 leukemia,0.348 µM
same,TGI,MOLT-4 leukemia,> 10 µM
same,GI50,MDA-MB-231 breast,0.982 µM
same,TGI,MDA-MB-231 breast,> 10 µM
same,GI50,MDA-MB-435,0.0425 µM
same,TGI,MDA-MB-435,0.313 µM
same,GI50,COLO 205 colon,0.308 µM
same,TGI,COLO 205 colon,1.14 µM
same,GI50,HCT-116 colon,0.322 µM
same,TGI,HCT-116 colon,> 10 µM
same,GI50,HOP-92 NSCLC,2.22 µM
same,TGI,HOP-92 NSCLC,> 10 µM
same,GI50,HS 578T breast,0.363 µM
same,TGI,HS 578T breast,> 10 µM
same,GI50,U251 CNS,0.328 µM
same,TGI,U251 CNS,> 10 µM
same,GI50,EKVX NSCLC,0.778 µM
same,TGI,EKVX NSCLC,> 10 µM
same,GI50,A498 renal,0.256 µM
same,TGI,A498 renal,> 10 µM
same,GI50,SF-295 CNS,0.25 µM
same,TGI,SF-295 CNS,> 10 µM
same,GI50,HT29 colon,0.29 µM
same,TGI,HT29 colon,1.07 µM
same,GI50,BT-549 breast,0.41 µM
same,TGI,BT-549 breast,5.43 µM
same,GI50,ACHN renal,0.833 µM
same,TGI,ACHN renal,> 10 µM
same,GI50,HCC-2998 colon,0.712 µM
same,TGI,HCC-2998 colon,> 10 µM
same,GI50,TK-10 renal,0.619 µM
same,TGI,TK-10 renal,> 10 µM
same,GI50,NCI/ADR-RES ovarian,0.239 µM
same,TGI,NCI/ADR-RES ovarian,> 10 µM
same,GI50,UACC-62 melanoma,0.177 µM
same,TGI,UACC-62 melanoma,> 10 µM
same,GI50,SNB-75 CNS,0.231 µM
same,TGI,SNB-75 CNS,> 10 µM
same,GI50,LOX IMVI melanoma,0.307 µM
same,TGI,LOX IMVI melanoma,> 10 µM
same,GI50,SN12C renal,0.583 µM
same,TGI,SN12C renal,> 10 µM
same,GI50,SK-MEL-5 melanoma,0.262 µM
same,TGI,SK-MEL-5 melanoma,4.1 µM
same,GI50,SNB-19 CNS,0.461 µM
same,TGI,SNB-19 CNS,> 10 µM
same,GI50,RPMI-8226 leukemia,0.318 µM
same,TGI,RPMI-8226 leukemia,> 10 µM
same,GI50,NCI-H23 lung,0.658 µM
same,TGI,NCI-H23 lung,> 10 µM
same,GI50,UO-31 renal,0.643 µM
same,TGI,UO-31 renal,> 10 µM
